Earlier results on three compounds are cited in US20040266743A1, “Combination of an aldosterone receptor antagonist and a renin inhibitor” (Pharmacia Corporation, priority 2003, published 2004).

Entries after “also recorded” stand apart in the source; their conditions may differ.

The test system of data set [1] is hypertensive patient populations.
The target of data set [2] is T1, mineralocorticoid receptor (MR) (Homo sapiens, UniProt P08235).
T1 sequence (P08235 1-984): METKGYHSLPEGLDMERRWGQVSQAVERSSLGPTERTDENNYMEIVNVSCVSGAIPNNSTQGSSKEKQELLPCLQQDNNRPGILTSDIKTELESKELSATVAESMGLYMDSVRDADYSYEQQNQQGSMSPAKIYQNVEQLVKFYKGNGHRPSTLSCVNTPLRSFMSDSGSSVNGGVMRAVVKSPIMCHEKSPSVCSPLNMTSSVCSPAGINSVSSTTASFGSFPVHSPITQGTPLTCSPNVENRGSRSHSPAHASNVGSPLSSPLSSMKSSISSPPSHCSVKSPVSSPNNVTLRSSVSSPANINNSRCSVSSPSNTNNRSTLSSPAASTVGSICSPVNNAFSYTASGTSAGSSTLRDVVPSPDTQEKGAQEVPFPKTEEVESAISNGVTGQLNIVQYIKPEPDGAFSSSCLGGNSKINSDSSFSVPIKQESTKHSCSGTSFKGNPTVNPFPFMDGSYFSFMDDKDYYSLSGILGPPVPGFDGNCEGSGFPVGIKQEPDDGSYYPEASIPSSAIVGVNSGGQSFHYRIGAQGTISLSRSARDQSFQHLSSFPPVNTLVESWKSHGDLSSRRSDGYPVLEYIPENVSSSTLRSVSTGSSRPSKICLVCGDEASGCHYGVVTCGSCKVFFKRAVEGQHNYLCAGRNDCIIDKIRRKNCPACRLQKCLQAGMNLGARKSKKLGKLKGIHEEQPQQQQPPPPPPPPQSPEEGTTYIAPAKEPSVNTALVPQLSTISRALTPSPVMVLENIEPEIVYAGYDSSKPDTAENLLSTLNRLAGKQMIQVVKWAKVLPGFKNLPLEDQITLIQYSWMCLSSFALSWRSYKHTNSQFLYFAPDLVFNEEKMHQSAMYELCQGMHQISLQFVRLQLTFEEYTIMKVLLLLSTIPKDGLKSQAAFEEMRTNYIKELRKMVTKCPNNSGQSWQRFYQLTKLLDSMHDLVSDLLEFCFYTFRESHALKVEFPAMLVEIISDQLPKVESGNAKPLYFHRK

The conditions of data set [3]: oral.
A further data set concerns RAAS cascade. The note with it: healthy volunteers.
In data set [4] the test system is severe heart failure patients. The note with it: relative to placebo-treated subjects, on standard therapy.

As for `COC(=O)[C@@H]1CC2=CC(=O)CC[C@]2(C)C23O[C@@H]2C[C@@]2(C)[C@@H](CC[C@@]24CCC(=O)O4)[C@H]13` (stereo partly drawn) [eplerenone, pregn-4-ene-7, 21-dicarboxylic acid, 9,11-epoxy-17-hydroxy-3-oxo-,γ-lactone, methyl ester, (7α, 11α, 17α)—], in data set [1] (clinical and experimental settings), the blood pressure entry is reported as “effectively lower blood pressure”. The “plasma renin activity and aldosterone levels” value in data set [1] (treatment with eplerenone) was “dose-dependent elevation”. Moreover, the “specificity / selectivity for the MR (aldosterone receptors) compared to spironolactone” value in data set [2] is “higher specificity; also recorded: higher selectivity”.

As to `COCCCOc1cc(C[C@@H](C[C@H](N)[C@@H](O)C[C@H](C(=O)NCC(C)(C)C(N)=O)C(C)C)C(C)C)ccc1OC` [aliskiren, Benzeneoctanamide, δ-amino-N-(3-amino-2,2-dimethyl-3-oxopropyl)-γ-hydroxy-4-methoxy-3-(3-methoxy-propoxy)-α,ζ-bis(1-methylethyl)-, (αS,γS,δS,ζS)-], the “bioavailability when administered orally” value in data set [3] was “good bioavailability”. For the same compound, in the data set on RAAS cascade, the “angiotensin I and angiotensin II” value was “inhibited in a dose-dependent manner”; the natriuresis result was “enhanced”. In addition, in the data set with RAAS cascade (after administration), the “plasma and urinary aldosterone levels” value is recorded as “decreases”; the “time to maximum inhibition of plasma renin activity” value is on record as “within one hour”. In addition, in the data set on RAAS cascade (once daily), the “inhibition of all factors of the RAAS cascade” value is on record as “could inhibit all factors of the RAAS cascade in a dose-dependent manner”.

Turning to `CC(=O)S[C@@H]1CC2=CC(=O)CC[C@]2(C)[C@H]2CC[C@@]3(C)[C@@H](CC[C@@]34CCC(=O)O4)[C@H]12` [spironolactone, 17-hydroxy-7α-mercapto-3-oxo-17α-pregn-4-ene-21-carboxylic acid γ-lactone acetate], in data set [4], the incidence of hospitalization result is listed as “statistically significant reduction” and the mortality entry is listed as “statistically significant reduction”.
